Results as given in paper PMC7961380, “A Systematic Study of the In Vitro Pharmacokinetics and Estimated Human In Vivo Clearance of Indole and Indazole-3-Carboxamide Synthetic Cannabinoid Receptor Agonists Detected on the Illicit Drug Market” (Molecules, 2021).
Like-named read-outs stand apart in the source and are kept apart here.

Assays:
[1] = Plasma protein binding by equilibrium dialysis; format: in vitro ADME, human; conditions: 37 °C; for fraction unbound at 5 h, 10 µg mL^−1: human, pooled human plasma, pH 7.4, equilibrium dialysis 5 h
Description: Plasma protein binding was assessed by equilibrium dialysis in a 96-well dialysis block (HTDialysis, Ledyard, CT, USA). Dialysis membranes (12–14 kDa) were soaked in deionised water for at least 60 min. Membranes were soaked overnight at 4 °C in ethanol:water 20:80% v/v and then rinsed with deionised water immediately prior to use. […] Spiked plasma (150 µL) was dialysed against isotonic phosphate buffer (pH 7.4) (150 µL) for 5 h at 37 °C with shaking at 100 rpm. Thermal degradation controls for each test compound were kept at 37 °C and 4 °C. Blank control plasma and buffer were included in the incubation. Following incubation, dialysed plasma samples and thermal degradation controls (50 µL) were added to drug-free buffer (50 µL), and dialysed buffer samples (50 µL) were added to drug-free plasma (50 µL). […] Supernatant (150 µL) was added to 50 µL deionised water and samples were analysed by UPLC-MS/MS as described above. Dialysed buffer from each well was tested for protein contamination using BCA protein assay reagent to determine whether membranes had been compromised.
Bu = Analyte/IS ratio determined in buffer side (2) Fraction unbound, fu=(100−% bound)/100

[2] = Metabolic stability, pooled human liver microsome incubations; conditions: for CLint scaled at 0.5 µM / half-life at 0.5 µM: human, microsomes; for CLint scaled at 0.5 µM: pH 7.4, Intrinsic clearance; for half-life at 0.5 µM: pH 7.4, T1/2 (min); for half-life at 0.5 µM / T1/2: pHLM 0.5 mg mL^−1, 0.5 µM, NADPH, 37 °C; for half-life at 0.5 µM / Microsomal Intrinsic Clearance, CLint micr / T1/2: n ≥ 3 ± SD; for Predicted In Vivo Hepatic Clearance, CLH: from pHLM CLint, well-stirred model with plasma fu, Q 21 mL min^−1 kg^−1
Description: Total incubation volume was 500 µL. Procedure: Test compound working solutions (50 µM in potassium phosphate buffer (pH 7.4)) were prepared (<1% DMSO). pHLM were thawed and diluted in potassium phosphate buffer (pH 7.4). […] Reactions were quenched in 200 µL ACN spiked with donepezil (IS, 50 ng mL^−1). […] Samples were analysed by UPLC-MS/MS in a 96 deep-well 2 mL plate. Each SCRA was incubated at least in triplicate but additional incubations were carried out across a number of analytical batches, giving greater replication and a greater understanding of system variability. Microsomal scaling factors used for human liver microsome incubations in the literature vary. Intrinsic clearance and predicted in vivo clearance rates calculated using alternative scaling factors found in the literature is provided in Section S6 of the supplementary information, to aid comparison of data between publications.
Equations used for in vitro intrinsic clearance calculation and human in vivo clearance […]
The equations used for in vitro intrinsic clearance calculation and human in vivo clearance estimation […]
Microsomal clearance (HLM incubations) in mL min-1 mg microsomal protein-1 [3]
Intrinsic clearance (whole-liver dimensions) (HLM incubations) in mL min-1 kg-1 [3] CL = k x V x [Liver](g) x SF Eqn. 7 […]
mg g microsomal protein-1 [7]
Intrinsic clearance (whole-liver dimensions) (HHep incubations) in mL min-1 kg-1 [4] CL = k x V x hepatocytes/g liver x [Liver](g) Eqn. 8 […]
Where: hepatocytes/g liver = 107x10^6 cells/g liver
Hepatic clearance in mL min-1 kg-1 [3]
[…] Eqn. 9
Where: Q = hepatic blood flow, 21 mL min-1 kg-1 [9]; fu = fraction unbound (plasma); CLint = […]
Estimated human hepatic extraction ratio [5]
Intrinsic clearance data – pooled human liver microsome incubations […]
table S4-28. Intrinsic clearance and predicted in vivo data calculated using alternative microsomal scaling factors found in the literature – 32 [10] and 45 [11] mg microsomal protein per gram liver – are provided in tables S29 and S30, respectively.

[3] = Short-term plasma stability with and without esterase inhibitors; conditions: 3 h, 37 °C; for remaining at 3 h, 5 µM: human, pH 7.4, Parent Compound Remaining (%)
Description: The pooled plasma used for both plasma stability and plasma binding studies originated from 50 donors, collected as whole blood from donors in the United States at an FDA-approved collection center, processed into plasma by centrifugation and immediately frozen (Innovative Research; Novi, MI, USA) and purchased from Patricell (Nottingham, UK). […] Stock solutions were prepared in DMSO. […] For incubations without inhibitor an equivalent volume of DMSO was included. Plasma mixture was pre-incubated at 37 °C for 5 min. Test compounds (5 µM) and procaine (positive control, 50 µM) were added to pre-warmed plasma mixture containing inhibitors. Incubation volume was 1 mL. Samples were mixed and 80 µL was immediately sampled and quenched into 200 µL ACN spiked with donepezil (internal standard (IS), 50 ng mL^−1). […] Peak area ratio of analyte to IS was used to determine half-lives of test compounds in plasma, both with and without the presence of esterase inhibitors.
The human plasma used was pooled from 50 donors, and was collected as whole blood from donors in
the United States at an FDA-approved collection center, processed into plasma by centrifugation and
The stability of the tested SCRAs, select metabolites and procaine control in pooled human plasma over
inhibitors bis(4-nitrophenyl) phosphate (BNPP) and phenyl methyl sulphonyl fluoride (PMSF) is

[4] = Metabolic stability, pooled human cryopreserved hepatocyte incubations; conditions: human, hepatocytes; for CLint scaled at 0.5 µM: Intrinsic clearance, pHHeps, alternative hepatocyte cell density 99x10^6 hepatocytes per gram liver; for half-life at 0.5 µM: T1/2 (min), pHHeps 0.25 million cells mL^−1, 0.5 µM, 37 °C, n ≥ 3 ± SD
[5] = test system: pooled human cryopreserved hepatocytes (pHHeps); test: as above; conditions: for Predicted In Vivo Hepatic Clearance, CLH: from pHHeps CLint, well-stirred model with plasma fu, Q 21 mL min^−1 kg^−1; for T1/2: pHHeps 0.25 million cells mL^−1, 0.5 µM, 37 °C, n ≥ 3 ± SD; for Intrinsic clearance, CLint: alternative hepatocyte cell density 99x10^6 hepatocytes per gram liver
[6] = 10 µg mL^−1, read-out: PPB (%) (converted)
[7] = plasma, read-out: Fraction Unbound (fu)
[8] = pHLM, alternative microsomal scaling factor 32 mg microsomal protein per gram liver
[9] = pHLM, alternative microsomal scaling factor 45 mg microsomal protein per gram liver
[10] = pHLM, scaling factor 32 mg microsomal protein per gram liver
[11] = pHLM, scaling factor 45 mg microsomal protein per gram liver
[12] = pH 7.4, BNPP and PMSF 500 µM each
[13] = pHHeps, 99x10^6 hepatocytes per gram liver

Row | Compound | fraction unbound at 5 h, 10 µg mL^−1 [1, 6] | fraction unbound at 5 h, 10 µg mL^−1 [1, 7] | CLint scaled at 0.5 µM [2, 8] [mL/min/kg] | CLint scaled at 0.5 µM [2, 9] [mL/min/kg] | half-life at 0.5 µM [2] [min] | CLint scaled at 0.5 µM [4] [mL/min/kg] | half-life at 0.5 µM [4] [min] | % parent compound remaining, Average ([2]; pHLM, 3 min) [%] | % parent compound remaining, Average ([2]; pHLM, 6 min) [%] | % parent compound remaining, Average ([2]; pHLM, 9 min) [%] | % parent compound remaining, Average ([2]; pHLM, 15 min) [%] | % parent compound remaining, Average ([2]; pHLM, 30 min) [%] | Microsomal Intrinsic Clearance, CLint micr ([2]; pHLM) | % parent compound remaining, Average ([5]; pHHeps, 3 min) [%] | % parent compound remaining, Average ([5]; pHHeps, 6 min) [%] | % parent compound remaining, Average ([5]; pHHeps, 9 min) [%] | % parent compound remaining, Average ([5]; pHHeps, 15 min) [%] | % parent compound remaining, Average ([5]; pHHeps, 30 min) [%] | % parent compound remaining, Average ([5]; pHHeps, 45 min) [%] | % parent compound remaining, Average ([5]; pHHeps, 60 min) [%] | also measured
1 | CC(C)[C@H](NC(=O)c1nn(CC2CCCCC2)c2ccccc12)C(N)=O [(S)-AB-[…] (11), N-[1-amino-3-methyl-1-oxobutan-2-yl]-1-(cyclohexylmethyl)-1H-indazole-3-carboxamide] | 0.028 | 0.028 ± 0.0219 | 42.1 | 59.2 | 27 ± 2.9 | 194 | 39 ± 8.8 |  |  |  |  |  |  |  |  |  |  |  |  |  | remaining at 3 h, 5 µM ([3]; Esterase Inhibitors, pH 7.4, BNPP and PMSF 500 µM each): 97.9 ± 7%; remaining at 3 h, 5 µM ([3]; plasma, No Esterase Inhibitors, pH 7.4, pooled human plasma): 98.2 ± 7.2%
2 | COC(=O)[C@H](NC(=O)c1nn(Cc2ccc(F)cc2)c2ccccc12)C(C)(C)C [(R)-MDMB-FUBINACA (6)] |  |  | 58.2 | 81.8 ± 10.5 | 20 ± 2.5 | 221 | 32 ± 5.4 | 77.3 | 75.0 | 70.2 | 57.2 | 33.3 | 0.071 ± 0.009 mL min^−1 mg Microsomal Protein^−1 | 93.0 | 82.9 | 77.6 | 70.2 | 53.1 | 57.7 | 41.1 | 
3 | COC(=O)[C@H](NC(=O)c1cn(CCCCCF)c2ccccc12)C(C)(C)C [(R)-5F-MDMB-PICA (3), methyl 2-[1-(5-fluoropentyl)-1H-indole-3-carboxamido]-3,3-dimethylbutanoate] |  |  |  |  |  |  |  | 72.6 | 62.5 | 52.6 | 36.8 | 16.4 | 0.132 ± 0.001 mL min^−1 mg Microsomal Protein^−1 | 87.4 | 85.8 | 88.6 | 78.8 | 64.9 | 51.8 | 43.7 | PPB (%) ([1]; equilibrium dialysis 5 h, 10 µg mL^−1): 93.8 ± 0.15%; Fraction Unbound (fu) ([1]; equilibrium dialysis 5 h, plasma): 0.062 ± 0.0015; Predicted In Vivo Hepatic Clearance, CLH [2]: 7.22 ± 0.05 mL/min/kg; Hepatic extraction ratio, EH ([2]; from pHLM incubations): 0.34 ± 0.002; T1/2 [2]: 11 ± 0.11 min; Intrinsic clearance, CLint [2, 8]: 108 ± 1.13 mL/min/kg; Intrinsic clearance, CLint [2, 9]: 152 ± 1.59 mL/min/kg; Hepatic extraction ratio, EH [2, 10]: 0.24 ± 0.002; Predicted in vivo hepatic clearance, CLH [2, 10]: 5.09 ± 0.04 mL/min/kg; Hepatic extraction ratio, EH [2, 11]: 0.31 ± 0.002; Predicted in vivo hepatic clearance, CLH [2, 11]: 6.51 ± 0.05 mL/min/kg; Parent Compound Remaining (%), Esterase Inhibitors [3, 12]: 97.7 ± 5.6%; Parent Compound Remaining (%), No Esterase Inhibitors ([3]; pH 7.4, pooled human plasma): 103.2 ± 14.5%; Predicted In Vivo Hepatic Clearance, CLH [5]: 6.27 ± 0.74 mL/min/kg; Hepatic extraction ratio, EH ([5]; from pHHeps incubations): 0.30 ± 0.035; T1/2 [5]: 54 ± 9.4 min; Hepatic extraction ratio, EH [5, 13]: 0.28 ± 0.034; Predicted in vivo hepatic clearance, CLH [5, 13]: 5.94 ± 0.72 mL/min/kg; Intrinsic clearance, CLint ([5]; pHHeps): 134 ± 22.3 mL/min/kg
4 | COC(=O)[C@H](NC(=O)c1nn(CCCCCF)c2ccccc12)C(C)(C)C [(R)-5F-MDMB-PINACA (2), methyl 2-[1-(5-fluoropentyl)-1H-indazole-3-carboxamido]-3,3-dimethylbutanoate] | 0.04 | 0.04 ± 0.0058 |  |  |  |  |  | 71.1 | 58.2 | 44.4 | 28.9 | 8.7 | 0.176 ± 0.024 mL min^−1 mg Microsomal Protein^−1 | 84.1 | 67.3 | 55.7 | 45.8 | 27.3 | 17.9 | 13.6 | Predicted In Vivo Hepatic Clearance, CLH [2]: 6.52 ± 0.61 mL/min/kg; Hepatic extraction ratio, EH ([2]; from pHLM incubations): 0.31 ± 0.029; T1/2 [2]: 8.0 ± 1.1 min; Intrinsic clearance, CLint [2, 8]: 145 mL/min/kg; Intrinsic clearance, CLint [2, 9]: 204 mL/min/kg; Hepatic extraction ratio, EH [2, 10]: 0.22 ± 0.023; Predicted in vivo hepatic clearance, CLH [2, 10]: 4.53 ± 0.48 mL/min/kg; Hepatic extraction ratio, EH [2, 11]: 0.28 ± 0.027; Predicted in vivo hepatic clearance, CLH [2, 11]: 5.85 ± 0.57 mL/min/kg; Parent Compound Remaining (%), Esterase Inhibitors [3, 12]: 100.1 ± 7.0%; Parent Compound Remaining (%), No Esterase Inhibitors ([3]; pH 7.4, pooled human plasma): 95.9 ± 6.7%; Predicted In Vivo Hepatic Clearance, CLH [5]: 8.16 ± 0.38 mL/min/kg; Hepatic extraction ratio, EH ([5]; from pHHeps incubations): 0.39 ± 0.018; half-life ([5]; pHHep lot HUE50-N): 22.9 ± 1.8 min; half-life ([5]; pHHep lot HUE50-P): 6.5 ± 0.13 min; T1/2 [5]: 23 ± 1.8 min; Hepatic extraction ratio, EH [5, 13]: 0.37 ± 0.018; Predicted in vivo hepatic clearance, CLH [5, 13]: 7.78 ± 0.38 mL/min/kg; Intrinsic clearance, CLint ([5]; pHHeps): 309 ± 23.6 mL/min/kg
